In PMC4109680, “Identification and Preclinical Pharmacology of the γ-Secretase Modulator BMS-869780” (International Journal of Alzheimer's Disease, 2014):

Assays:
Format in all cases: cell-based
Aβ1-40 (MEF PS1wt) = test: Aβ1-40 ELISA in MEF dKO cultures cotransfected with APP-CTF and human presenilin-1 wild type; details: wild type human presenilin-1
Protocol: (§1) H4-APPsw cell cultures were maintained on Dulbecco's modified Eagle's medium (DMEM) supplemented with L-glutamine (2 mM), fetal bovine serum (10%), and G418 (100 μg/mL). […] Aβ1-42 and Aβ1-40 assays, and Notch inhibition assays, were carried out as described previously. Mouse embryonic fibroblasts deficient in PS1 and PS2 (MEF dKO) were passaged twice per week in DMEM/F-12 medium, consisting of a 1 : 1 mixture of DMEM and F-12 nutrient mixture supplemented with 10% fetal bovine serum, penicillin, and streptomycin. For expression of human presenilin-1 in MEF dKO cells, the full length human presenilin-1 cDNA open reading frame was cloned between the BamHI and XhoI sites of the vector pcDNA5/FRT (Invitrogen), placing presenilin-1 expression under the control of the CMV promoter. […]
(§2) IC50 determinations for Aβ1-42 and Aβ1-40 in H4-APPsw cultures in 384-well format were determined using homogeneous time-resolved fluorescence immunoassays as previously described. […] In other experiments using H4-APPsw cultures, Aβ was quantified by ELISA; for Aβ1-42 the combination of monoclonal antibodies was 26D6 and 565-HRP; for Aβ1-40 it was TSD and 26D6-HRP, and for Aβ1-x it was 4G8 and 26D6-HRP. […] For Aβ in transiently transfected PS1/PS2 dKO fibroblasts, Aβ1-42 was quantified using an ELISA kit (WACO), and Aβ1-40 was quantified by ELISA as described above for H4-APPsw cultures. […]

Aβ1-40 (MEF M146V) = test: Aβ1-40 ELISA in MEF dKO cultures cotransfected with APP-CTF and human presenilin-1 M146V allele
Protocol: as §1, §2

pregnane-X-receptor = target: T1, pregnane-X-receptor (Homo sapiens, UniProt O75469); test: Pregnane-X-receptor transactivation assay (PXR-TA), luciferase reporter in HepG2 cells
T1 construct: host or cells: HepG2
Protocol: Determination of IC50 values for inhibition of secreted alkaline phosphatase (SEAP) was carried out using an H4 cell line stably expressing SEAP. Cells were treated overnight with compounds in 384-well format, and SEAP accumulation in the culture media was quantified using a chemiluminescence substrate. The pregnane-X-receptor transactivation assay (PXR-TA) was based on the methods of Goodwin et al. as described previously. In the 4-day rat study with BMS-869780, tissues were fixed in 10% neutral buffered formalin, embedded in paraffin, sectioned, stained with hematoxylin and eosin, and examined by light microscopy.
(§3) Figure 10 BMS-869780 caused PXR activation in vitro and lipidosis in rat liver. (a) PXR activation in the presence of BMS-869780 was evaluated in HepG2 cell cultures using a luciferase transcriptional reporter construct (●), or by assay of CYP3A4 mRNA levels in primary human hepatocyte (PHH) cultures from two individual donors (▲ and ▼). Activation in both assays is expressed as % relative to activation in the presence of rifampicin, 10 μM, in parallel cultures. (b) Liver section from vehicle-dosed rats. (c) Liver section from rats given 4 daily doses of BMS-869780 at 100 mg/kg.

CYP3A4 mRNA = CYP3A4 mRNA expression in primary human hepatocytes; details: two donors, relative to rifampicin 10 μM
Protocol: as §3

T1 sequence (O75469 whole entry): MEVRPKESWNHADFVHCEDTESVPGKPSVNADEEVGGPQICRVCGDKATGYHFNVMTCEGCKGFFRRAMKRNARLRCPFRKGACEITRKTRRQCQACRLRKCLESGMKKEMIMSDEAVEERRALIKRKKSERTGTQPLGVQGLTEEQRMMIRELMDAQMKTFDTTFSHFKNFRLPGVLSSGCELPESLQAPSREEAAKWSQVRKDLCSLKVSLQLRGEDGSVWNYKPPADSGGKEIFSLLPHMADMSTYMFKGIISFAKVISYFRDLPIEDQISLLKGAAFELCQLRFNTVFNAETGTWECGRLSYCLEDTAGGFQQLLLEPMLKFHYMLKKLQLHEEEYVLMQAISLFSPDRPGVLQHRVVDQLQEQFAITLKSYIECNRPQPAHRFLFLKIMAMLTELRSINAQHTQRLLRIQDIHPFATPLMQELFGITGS

Structure (SMILES): COc1cc(Nc2nc3n(n2)CCCC[C@H]3c2ccc(F)cc2)ccc1-n1cnc(Cl)c1 [BMS-869780]
- IC50 (Aβ1-40 (MEF PS1wt)): 11 nM
- IC50 (Aβ1-40 (MEF M146V); Homo sapiens, presenilin-1 M146V allele): 34 nM
- Aβ1-40 IC50 shift in M146V allele relative to wild type presenilin (Aβ1-40 (MEF M146V); MEF cultures): ca. 3 fold
- activity in PXR-TA (pregnane-X-receptor): robust activity
- concentrations at which PXR transcription was activated (pregnane-X-receptor; HepG2 luciferase reporter, relative to rifampicin 10 μM): ≥ 300 nM
- concentrations at which CYP3A4 mRNA transcription was activated (CYP3A4 mRNA): ≥ 300 nM
